{
  "source": "patent US20250099534A1",
  "about": "“UBIQUITIN HIGH AFFINITY CYCLIC PEPTIDES AND METHODS OF USE THEREOF” (TECHNION RESEARCH & DEVELOPMENT FOUNDATION LIMITED, priority 2022, published 2025)",
  "key": {"[1]": {"experiment": "Solubility in buffer (aq.) medium", "assay_type": "physicochemical"}, "[2]": {"test_system": "U2OS cells", "experiment": "Cell uptake studies by live-cell confocal microscopy", "details": "2 μM", "description": "(§1) Cells were seeded for 24 h on ibidi 8 well μ-slides treated with poly-L-lysine to reach ˜90% confluency. Cells were then washed three times with warm PBS followed by incubation for 1 h with warm serum-free medium (DMEM) containing peptides. Thereafter, cells were washed two times with warm PBS. Prior to imaging, cells were washed with an optical culture medium and stained with Hoechst (2 μg/ml). Live cell CLSM images were captured using Confocal Zeiss LSM 710 equipped with 40×NA 1.2 water immersion objective lens using a 1 AU pinhole settings. Different lasers were used for the different tags (Hoechst, TAMRA, FITC), and during analysis, the μ-slide was kept at 37° C. in a humidified chamber."}, "[3]": {"test_system": "U2OS cells", "description": "as §1"}},
  "note": "Like-named read-outs stand apart in the source and are kept apart here. Starred links: 1 amine or outer side, 2 acyl side, 3 side chain; linkers in the order of their positions; H or OH if unused. Positions of bridges follow the written chain, without caps; N, C: chain ends. Residues, ends and D or L forms follow the SMILES beside them. *: point of attachment. Fluorescein(5-Mal) = O=C1OC2(c3ccc(O)cc3Oc3cc(O)ccc32)c2ccc(N3C(=O)CC(*)C3=O)cc21; X2 = CN(C)c1ccc2c(c1)Oc1cc(N(C)C)ccc1C21OC(=O)c2cc(N3C(=O)CC(*)C3=O)ccc21; X1 = O=C(c1cccc(C[*:2])c1)[*:1]",
  "data": [
    {"molecule": "CC[C@H](C)[C@@H]1NC(=O)[C@H](Cc2c[nH]c3ccccc23)NC(=O)[C@H]([C@@H](C)CC)NC(=O)[C@H](CC(C)C)NC(=O)[C@H](CS)NC(=O)c2cccc(c2)CSC[C@@H](C(=O)NCC(N)=O)NC(=O)[C@H](CC(C)C)NC(=O)[C@H]([C@@H](C)CC)NC(=O)[C@H](Cc2ccc(O)cc2)NC(=O)[C@@H]2CCCN2C(=O)[C@H](CC(N)=O)NC(=O)[C@H](CCCCN)NC(=O)[C@H](CO)NC(=O)[C@H](CO)NC(=O)CNC1=O", "note": "[cyclic peptide 2] (CLIWIGSSKNPYILCG-NH2; linker N-15 via X1)", "values": [
      {"measurement": "aqueous solubility", "setting": "[1]", "result": "poor aqueous solubility"}
    ]},
    {"molecule": "CC[C@H](C)[C@@H]1NC(=O)[C@H](Cc2c[nH]c3ccccc23)NC(=O)[C@H]([C@@H](C)CC)NC(=O)[C@H](CC(C)C)NC(=O)[C@H](CS)NC(=O)c2cccc(c2)CSC[C@@H](C(=O)NCC(=O)N[C@@H](C)C(=O)N[C@@H](CSC2CC(=O)N(c3ccc4c(c3)C(=O)OC43c4ccc(N(C)C)cc4Oc4cc(N(C)C)ccc43)C2=O)C(N)=O)NC(=O)[C@H](CC(C)C)NC(=O)[C@H]([C@@H](C)CC)NC(=O)[C@H](Cc2ccc(O)cc2)NC(=O)[C@@H]2CCCN2C(=O)[C@H](CC(N)=O)NC(=O)[C@H](CCCCN)NC(=O)[C@H](CO)NC(=O)[C@H](CO)NC(=O)CNC1=O", "note": "(stereo partly drawn) [cyclic peptide 26] (CLIWIGSSKNPYILCGAC(X2)-NH2; linker N-15 via X1)", "values": [
      {"measurement": "cell-permeability / delivery to live cells", "setting": "[2]", "result": "efficient cell-permeability"}
    ]},
    {"molecule": "CC[C@H](C)[C@@H]1NC(=O)[C@H](Cc2c[nH]c3ccccc23)NC(=O)[C@H]([C@@H](C)CC)NC(=O)[C@H](CC(C)C)NC(=O)[C@H](CS)NC(=O)c2cccc(c2)CSC[C@@H](C(=O)NCC(=O)N[C@@H](C)C(=O)N[C@@H](CSC2CC(=O)N(c3ccc4c(c3)C(=O)OC43c4ccc(O)cc4Oc4cc(O)ccc43)C2=O)C(N)=O)NC(=O)[C@H](CC(C)C)NC(=O)[C@H]([C@@H](C)CC)NC(=O)[C@H](Cc2ccc(O)cc2)NC(=O)[C@@H]2CCCN2C(=O)[C@H](CC(N)=O)NC(=O)[C@H](CCCCN)NC(=O)[C@H](CO)NC(=O)[C@H](CO)NC(=O)CNC1=O", "note": "(stereo partly drawn) [cyclic peptide 29] (CLIWIGSSKNPYILCGAC(Fluorescein(5-Mal))-NH2; linker N-15 via X1)", "values": [
      {"measurement": "cell-permeability / delivery to live cells", "setting": "[3]", "result": "did not observe an efficient delivery"}
    ]}
  ]
}
